Tests used:
ATR = ATR (Homo sapiens, UniProt Q13535); conditions: cited from earlier work
human zygotes = assay: DNA damage foci immunostaining in human zygotes/parthenotes; assay type: cell-based
Description: (§1) Embryos, mouse and human, were cultured in Global Total (Life-Global) for the duration of the experiments and with added compounds as outlined below. Incubation in RNA polymerase inhibitors triptolide (1 mM) or alpha amanitin (20 mg/ml) was performed from the 2PN stage (day1) to day3 of human development. Incubation in aphidicolin was performed at 2 mM. […] Mirin was used at a concentration of 50 mM. Olaparib was used to inhibit PARP at a concentration of 10 mM. All experiments were conducted during incubation at 37° C. with 5% CO2 and 19-20% O2. Chemical stock solutions were prepared in DMSO at concentrations at least 1000× higher than the final concentration.
Artificial activation of human MII oocytes was performed using two pulses of 2.7 kV/cm at 50 ms using ECFG21 (Nepagene) in fusion buffer consisting of 0.25 M d-sorbitol buffer containing 0.1 mM calcium acetate, 0.5 mM magnesium acetate, 0.5 mM HEPES, and 1 mg ml^−1 fatty-acid-free BSA as previously described (Tachibana et al., 2013). Thereafter, oocytes were incubated for 3.5-4 h in 10 mg/ml puromycin, followed by a wash step and following culture in Global total.
(§2) Following the experimental exposures, mouse and human embryos were fixed in 2% paraformaldehyde (PFA) and 0.25% Triton X-100 in PBS for 10 minutes at room temperature, serially washed in phosphate-buffered solution (PBS) at room temperature, then stored in PBS at 4° C. until staining and imaging. Embryos were placed in 10-20 ml droplets of primary antibody solution within plastic tissue culture dishes covered with mineral oil for 1 hour at room temperature, serially washed (×2) in PBS containing 0.01% Triton X-100 to prevent embryos sticking to oil, then transferred to 10-20 ml secondary antibody solution and Hoechst (dilution 1:500) for 30 minutes. Embryos were then serially washed (×2) and placed in 5 ml droplets of PBS with 0.5% serum albumin in uncoated glass bottom dishes (Mattek) covered with embryo culture oil for imaging. The following primary antibodies were used across experiments as described above: Oct-4, γH2AX, RPA32, RPA32 S4/S8, RPA32 S33, 53BP1, RAD51, Centromere, and phospho-CHK1. […] The appropriate secondary antibodies conjugated with Alexa Fluor 488, Alexa Fluor 555, CF 568, or Alexa Fluor 647 were diluted at 1:500-1:1000. Ethynyl deoxyuridine (EdU) labeling of zygotes and embryos was performed using the labeling kit (Thermo Fisher Scientific) as described by the manufacturer. 10 mM EdU was added to culture medium for 1 h at the indicated time points, and cells were harvested and fixed thereafter. 5-ethynyl uridine (EU) labeling was performed by incubating day3 cleavage stage embryos for 4 hours in Global total containing 0.2 mM EU.
(§3) Embryos were imaged with confocal microscopy using a Zeiss LSM (LSM 710) at a magnification of 63× and the Zeiss Zen software. Images were obtained using 488-, 543- and 633-nm lasers and bright-field microscopy. The number of confocal sections was adjusted to capture the entire nucleus or the entire embryo according to the experimental design as described above. Cell numbers and staining foci numbers were counted manually. Nuclei were identified by the presence of Hoechst33342. Foci were identified if at least 3× greater intensity than nuclear average, spherical in appearance, and overlapping with Hoechst33342 staining. Inner cell masses were identified by the presence of Oct4 within a blastocyst embryo. Active DNA replication was identified by the presence of EdU. DNA damage was identified by the detection of γH2AX and RPA foci within the nucleus. Mechanisms of DNA repair were identified through the detection of RPA S4/S8, RPA S33, Rad51 and 53BP1 foci within the nucleus.

mouse 2-cell embryos = assay: single-cell sequencing chromosome content analysis, mouse 2-cell embryos; assay type: cell-based; conditions: mouse embryos, Wee1 kinase inhibitor added alongside aphidicolin
Description: as §1
Single cells from blastomeres were collected on the heated stage (Tokai Hit) of an Olympus IX71 inverted microscope equipped with Narishige micromanipulators and a zona pellucida laser (Hamilton-Thorne). Single nuclei were isolated from blastomeres by lysis and dissection of different nuclei using two […] diameter Piezo micropipettes and Holding pipette (Origio). Single embryo cells or nuclei were placed manually in single wells of a 96-well plate containing 9 ml of lysis buffer, prepared as a master mix of 798 ml H2O, 6 ml of 10 mg/mL Proteinase K solution (Sigma-Aldrich), and 96 ml 10× Single Cell Lysis and Fragmentation buffer (Sigma-Aldrich). Single cells/single nuclei were lysed by heating 96-well plates containing single cells/single nuclei at 50° C. for 1 hour, followed by incubation at 99° C. for four minutes using a PCR thermocycler. Single-cell/single-nuclei whole genome amplification (WGA) using degenerate oligo-nucleotide priming PCR (DOP-PCR) was performed using the SEQPLEX Enhanced DNA Amplification Kit (SEQXE, Sigma) according to the manufacturer's instructions. In addition, a modified version of the DOP-PCR protocol that allows inline indexing of WGA DNA was also applied. WGA DNA was subsequently processed for Illumina library sequencing preparation using standard TruSeq indexing methods via the NEBNext Ultra II DNA Library Prep Kit for Illumina (New England Biolabs). NEBNext Multiplex Oligos for Illumina (96 index primers) were used for four amplification cycles. Library DNA was quantified using Qubit dsDNA HS Assay Kit (Invitrogen, Carlsbad, CA, USA) and library size distribution was confirmed using a 2100 Bioanalyzer DNA 1000 Kit (Agilent, Santa Clara, CA, USA). A unimodal curve centered around 300-500 bp was scored as a successful library preparation. Subsequently, 30 mL of each pooled library was sent for sequencing at a concentration of 20 ng/ml. Mutiplex sequencing was performed using Illumina HiSeq 2500 single end indexed run (SR100) while targeting a coverage of approximately 1 million reads per cell/nuclei, sufficient for quantitative genome-wide copy number analysis.
Analysis of DNA sequencing data was performed as previously described (Baslan et al., 2015) with minor modifications as outlined below. Briefly, multiplex sequencing data were demultiplexed according to unique barcodes with reads assigned to their respective single-cell or single-nuclei. Unique reads were aligned to the reference human and mouse genome builds, hg19 and mm9, respectively. Each genome was partitioned into 5000 bins using a previously described algorithm (Varbin) that corrects for genome sequence mappability (Baslan et al., 2012; Navin et al., 2011). Uniquely mapped reads were sorted, indexed and subsequently counted within the partitioned genomic bins. For single-cell copy number inference, read count data were normalized genome-wide followed by CBS segmentation (Olshen et al., 2004) and transformed into integer copy number states using a least-squares fit approach (Baslan et al., 2015).

mouse embryos = assay: mouse preimplantation development and embryo quality; assay type: cell-based
Description: as §1
(§4) Mouse oocytes were activated at 1-6 hours post retrieval using 2 mM ionomycin (Sigma Aldrich) in Global Total medium for 5 minutes at 37° C. followed by culture in 10 mM puromycin and 5 mg/ml cytochalasin B for 3 hours, then cytochalasinB only for 2 hours and 10 minutes to prevent second polar body extrusion.
as §2, with “phospho-CHK1. Phospho-specific antibodies were quality controlled through ATR dependence of foci formation in mouse zygotes, and for γH2AX also in human zygotes.” for “phospho-CHK1.”
as §3

mouse 1-cell embryos = assay: timing of mitotic entry in mouse 1-cell embryos; assay type: cell-based; conditions: G2 phase mouse embryos, compared with untreated controls
Description: as §1, §4

mouse zygotes = assay: DNA damage foci immunostaining in mouse zygotes/embryos; assay type: cell-based; conditions: mouse zygotes, mirin combined with aphidicolin
Description: as §1, §4
as §2, with “phospho-CHK1. Phospho-specific antibodies were quality controlled through ATR dependence of foci formation in mouse zygotes, and for γH2AX also in human zygotes.” for “phospho-CHK1.”
as §3

human embryos [1] = assay: ethynyl uridine label incorporation in human embryos; assay type: cell-based; conditions: incubation from days 1 to 3
Description: as §1
(§5) Following the experimental exposures, mouse and human embryos were fixed in 2% paraformaldehyde (PFA) and 0.25% Triton X-100 in PBS for 10 minutes at room temperature, serially washed in phosphate-buffered solution (PBS) at room temperature, then stored in PBS at 4° C. until staining and imaging. Embryos were placed in 10-20 ml droplets of primary antibody solution within plastic tissue culture dishes covered with mineral oil for 1 hour at room temperature, serially washed (×2) in PBS containing 0.01% Triton X-100 to prevent embryos sticking to oil, then transferred to 10-20 ml secondary antibody solution and Hoechst (dilution 1:500) for 30 minutes. […]

human embryos [2] = assay: nucleation and development of human embryos; assay type: cell-based; conditions: 2PN zygotes incubated days 1 to 3, versus untreated cleavage-stage embryos
From the text: Cryopreserved human cleavage-stage and blastocyst embryos and unfertilized oocytes were anonymously donated from individuals and couples who provided consent for use in research. Embryos were of good quality and had been cryopreserved for potential clinical use but were then no longer needed and donated for research. The cause of treatment is not disclosed. Range of maternal age of donated embryos is between 27-43. Embryos of both sexes were used, as provided by the unbiased fertilization of oocytes with sperm carrying either a Y or X chromosome. Cleavage stage embryos were thawed using the one-step thaw protocol using Global total with HEPES. Blastocyst stage embryos were thawed using the Quinn's Advantage thaw kit, then exposed to experimental conditions as outlined below. Vitrified embryos were thawed with the ECMPC warming solution set. Embryo culture was performed in Global Total. All experiments were conducted during incubation at 37° C. with 5% CO2 and 20% 02.
as §1
as §5, with “minutes. Embryos were then serially washed (×2) and placed in 5 ml droplets of PBS with 0.5% serum albumin in uncoated glass bottom dishes (Mattek) covered with embryo culture oil for imaging.” for “minutes.”
Embryos were imaged with confocal microscopy using a Zeiss LSM (LSM 710) at a magnification of 63× and the Zeiss Zen software. […] Cell numbers and staining foci numbers were counted manually. […]

ATR, sequence (Q13535 whole entry): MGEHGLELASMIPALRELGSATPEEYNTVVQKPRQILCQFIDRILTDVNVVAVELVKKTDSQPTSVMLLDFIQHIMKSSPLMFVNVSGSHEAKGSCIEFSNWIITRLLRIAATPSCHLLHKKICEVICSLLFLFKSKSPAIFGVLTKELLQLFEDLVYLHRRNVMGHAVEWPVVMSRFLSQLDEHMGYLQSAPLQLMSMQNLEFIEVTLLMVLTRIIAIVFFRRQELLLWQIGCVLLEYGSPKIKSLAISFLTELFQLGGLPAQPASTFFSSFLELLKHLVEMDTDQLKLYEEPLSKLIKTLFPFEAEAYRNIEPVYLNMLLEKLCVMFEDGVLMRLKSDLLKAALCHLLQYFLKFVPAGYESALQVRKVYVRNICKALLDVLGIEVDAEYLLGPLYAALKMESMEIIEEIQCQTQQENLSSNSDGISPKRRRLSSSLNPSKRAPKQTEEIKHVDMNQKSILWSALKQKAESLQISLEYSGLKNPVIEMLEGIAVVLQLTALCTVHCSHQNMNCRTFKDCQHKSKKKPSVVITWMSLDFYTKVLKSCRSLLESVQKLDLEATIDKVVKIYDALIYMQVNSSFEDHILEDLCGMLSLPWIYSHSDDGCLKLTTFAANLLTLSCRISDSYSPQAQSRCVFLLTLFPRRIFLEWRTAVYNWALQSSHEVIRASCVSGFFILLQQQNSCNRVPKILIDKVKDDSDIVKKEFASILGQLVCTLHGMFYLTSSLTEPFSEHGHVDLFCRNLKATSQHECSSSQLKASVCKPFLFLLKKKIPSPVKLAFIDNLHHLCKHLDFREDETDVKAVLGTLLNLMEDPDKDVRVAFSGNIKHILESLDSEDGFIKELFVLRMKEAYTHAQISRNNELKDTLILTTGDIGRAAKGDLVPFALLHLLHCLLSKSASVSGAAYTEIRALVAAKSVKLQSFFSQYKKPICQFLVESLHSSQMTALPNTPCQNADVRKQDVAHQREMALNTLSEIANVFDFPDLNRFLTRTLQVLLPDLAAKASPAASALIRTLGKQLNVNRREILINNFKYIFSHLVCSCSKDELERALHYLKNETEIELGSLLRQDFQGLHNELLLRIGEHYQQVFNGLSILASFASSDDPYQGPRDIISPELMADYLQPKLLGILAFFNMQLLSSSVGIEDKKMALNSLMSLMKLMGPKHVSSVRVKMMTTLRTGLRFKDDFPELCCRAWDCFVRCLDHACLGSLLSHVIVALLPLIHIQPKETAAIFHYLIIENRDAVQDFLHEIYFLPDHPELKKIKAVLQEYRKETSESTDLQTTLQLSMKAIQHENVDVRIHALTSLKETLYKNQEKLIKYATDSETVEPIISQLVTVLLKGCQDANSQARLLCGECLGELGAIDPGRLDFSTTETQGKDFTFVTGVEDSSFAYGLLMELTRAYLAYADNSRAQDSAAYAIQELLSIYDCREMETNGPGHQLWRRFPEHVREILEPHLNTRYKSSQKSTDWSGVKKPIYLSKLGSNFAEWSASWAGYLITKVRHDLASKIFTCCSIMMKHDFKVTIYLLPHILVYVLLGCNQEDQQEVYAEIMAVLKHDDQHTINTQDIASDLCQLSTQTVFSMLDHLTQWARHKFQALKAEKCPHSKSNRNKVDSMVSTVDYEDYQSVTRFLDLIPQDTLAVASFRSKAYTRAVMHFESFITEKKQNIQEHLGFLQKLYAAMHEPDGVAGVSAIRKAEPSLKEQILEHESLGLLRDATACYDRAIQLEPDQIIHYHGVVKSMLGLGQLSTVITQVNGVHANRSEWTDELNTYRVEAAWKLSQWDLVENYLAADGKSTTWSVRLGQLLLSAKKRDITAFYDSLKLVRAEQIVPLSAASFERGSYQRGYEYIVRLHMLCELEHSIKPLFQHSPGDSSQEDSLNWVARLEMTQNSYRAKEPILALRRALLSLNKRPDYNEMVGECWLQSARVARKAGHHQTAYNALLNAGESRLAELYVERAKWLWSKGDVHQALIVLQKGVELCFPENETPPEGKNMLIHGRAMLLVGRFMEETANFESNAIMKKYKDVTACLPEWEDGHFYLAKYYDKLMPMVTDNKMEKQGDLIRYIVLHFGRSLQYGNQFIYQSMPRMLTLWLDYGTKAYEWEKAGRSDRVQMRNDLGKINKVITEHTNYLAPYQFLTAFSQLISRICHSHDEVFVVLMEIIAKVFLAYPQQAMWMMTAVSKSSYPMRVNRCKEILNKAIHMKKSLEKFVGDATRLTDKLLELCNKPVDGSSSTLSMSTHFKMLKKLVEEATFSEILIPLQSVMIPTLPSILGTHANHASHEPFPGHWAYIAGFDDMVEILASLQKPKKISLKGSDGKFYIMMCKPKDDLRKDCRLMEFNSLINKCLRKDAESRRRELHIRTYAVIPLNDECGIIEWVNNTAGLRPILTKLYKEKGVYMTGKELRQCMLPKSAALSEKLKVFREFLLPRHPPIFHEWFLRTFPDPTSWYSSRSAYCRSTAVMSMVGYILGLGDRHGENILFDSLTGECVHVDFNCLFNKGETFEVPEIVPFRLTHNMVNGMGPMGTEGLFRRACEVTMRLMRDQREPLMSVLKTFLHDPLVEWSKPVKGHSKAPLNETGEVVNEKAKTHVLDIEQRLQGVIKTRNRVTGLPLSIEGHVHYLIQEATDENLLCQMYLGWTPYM
ATR, sequence (Q8WXE1 whole entry partner): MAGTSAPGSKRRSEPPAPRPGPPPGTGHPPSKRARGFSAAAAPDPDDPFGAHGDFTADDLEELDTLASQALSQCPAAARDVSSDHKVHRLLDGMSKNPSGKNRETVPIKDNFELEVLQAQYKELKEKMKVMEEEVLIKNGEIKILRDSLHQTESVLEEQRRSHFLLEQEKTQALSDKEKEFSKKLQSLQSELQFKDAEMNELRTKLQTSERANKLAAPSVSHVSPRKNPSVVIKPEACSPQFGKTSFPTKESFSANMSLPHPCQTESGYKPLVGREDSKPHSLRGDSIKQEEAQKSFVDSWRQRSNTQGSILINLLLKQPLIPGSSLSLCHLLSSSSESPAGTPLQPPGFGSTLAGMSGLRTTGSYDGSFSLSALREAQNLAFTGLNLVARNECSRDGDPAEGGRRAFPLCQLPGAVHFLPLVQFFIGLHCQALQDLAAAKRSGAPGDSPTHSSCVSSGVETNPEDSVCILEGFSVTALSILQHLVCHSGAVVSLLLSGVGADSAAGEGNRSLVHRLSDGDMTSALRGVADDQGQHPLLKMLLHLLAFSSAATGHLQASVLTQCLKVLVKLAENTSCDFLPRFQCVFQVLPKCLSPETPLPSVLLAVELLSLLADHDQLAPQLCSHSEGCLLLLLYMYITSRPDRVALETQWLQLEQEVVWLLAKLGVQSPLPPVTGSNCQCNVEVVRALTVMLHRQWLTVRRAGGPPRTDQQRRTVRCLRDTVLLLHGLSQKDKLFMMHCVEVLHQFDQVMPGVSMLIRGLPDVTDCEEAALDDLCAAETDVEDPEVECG

With `CS(=O)(=O)c1ccc(-c2cnc(N)c(C(=O)Nc3ccccc3)n2)cc1` [ATR45] as the compound, how does the “selectivity over related kinases ATM or DNA-PK” value (ATR) read?
The value was greater than 600 ×.

And the “number of γH2AX foci” value (human zygotes; parthenogenetically activated oocytes, inhibitor from 14-18 h into the first cell cycle, relative to controls)?
The value was “reduced significantly”.

For `C=CCn1c(=O)c2cnc(Nc3ccc(N4CCN(C)CC4)cc3)nc2n1-c1cccc(C(C)(C)O)n1` [Wee1 kinase inhibitor], which genome after mitosis (mouse 2-cell embryos) is on record?
The genome after mitosis was “highly fragmented genome”.

And the developmental potential (mouse embryos; treatment in G2 phase, compared with untreated controls)?
The developmental potential was “impaired”.

And the advance of mitosis (mouse 1-cell embryos)?
Its advance of mitosis is 1.5 h.

For `N=C1NC(=O)/C(=C/c2ccc(O)cc2)S1` [mirin], which “number of RAD51 foci, average” value (human zygotes; human zygotes, combined exposure to aphidicolin and mirin) is on record?
Its value is 50 sites.

And the “number of Rad51 foci” value (mouse zygotes)?
Its value is “more than 50”.

And the “number of foci marked by γH2AX” value (mouse zygotes)?
Its value is “more than 100”.

For `CC(C)[C@]12O[C@H]1[C@@H]1O[C@]13[C@]1(O[C@H]1C[C@H]1C4=C(CC[C@@]13C)C(=O)OC4)[C@@H]2O` [triptolide], which “embryos showing ethynyl uridine label incorporation” value (human embryos [1]) is on record?
The value was 0/4.

And the “mouse embryos developed beyond the two-cell stage” value (mouse embryos; in the presence of the inhibitor)?
The value was 0/15.

What about the micronucleation (human embryos [2]) of the same compound?
The micronucleation was “comparable”.

Which micronucleation (human embryos [2]) does the source give for a-amanitin here?
Its micronucleation is “comparable”.
